Measured values published in PMC6367500, “18β-glycyrrhetyl-3-O-sulfate would be a causative agent of licorice-induced pseudoaldosteronism” (Scientific Reports, 2019).
pIC50: −log10 of the molar value. Read-outs that look alike come from different tables or passages of the source.

Assays:
[1] = target: T1, rat type 2 11β-hydroxysteroid dehydrogenase (11β-HSD2) (Rattus norvegicus, UniProt P50233); settings: rat kidney microsome fraction; cited from earlier work
T1 construct: each compound were mixed with the rat kidney microsome fraction, and incubated at 37 °C for 30 min; from tissue; host or cells: rat kidney microsome fraction
T1 sequence (P50233 1-400): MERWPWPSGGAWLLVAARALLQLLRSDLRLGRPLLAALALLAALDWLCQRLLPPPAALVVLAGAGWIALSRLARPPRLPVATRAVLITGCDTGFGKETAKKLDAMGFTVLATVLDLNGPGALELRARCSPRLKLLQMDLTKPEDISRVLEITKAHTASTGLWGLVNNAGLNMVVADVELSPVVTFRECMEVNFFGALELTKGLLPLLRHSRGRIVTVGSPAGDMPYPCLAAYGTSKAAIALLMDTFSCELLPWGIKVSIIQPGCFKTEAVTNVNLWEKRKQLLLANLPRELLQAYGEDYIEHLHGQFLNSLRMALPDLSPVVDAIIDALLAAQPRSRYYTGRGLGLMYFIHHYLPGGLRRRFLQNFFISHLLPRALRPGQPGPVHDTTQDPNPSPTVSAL

OAT1 [2] = target: T2, OAT1 (Homo sapiens, UniProt Q4U2R8); settings: cited from earlier work
T2 construct: expressed in transfected cells; host or cells: MDCK II cells
T2 sequence (Q4U2R8 1-563): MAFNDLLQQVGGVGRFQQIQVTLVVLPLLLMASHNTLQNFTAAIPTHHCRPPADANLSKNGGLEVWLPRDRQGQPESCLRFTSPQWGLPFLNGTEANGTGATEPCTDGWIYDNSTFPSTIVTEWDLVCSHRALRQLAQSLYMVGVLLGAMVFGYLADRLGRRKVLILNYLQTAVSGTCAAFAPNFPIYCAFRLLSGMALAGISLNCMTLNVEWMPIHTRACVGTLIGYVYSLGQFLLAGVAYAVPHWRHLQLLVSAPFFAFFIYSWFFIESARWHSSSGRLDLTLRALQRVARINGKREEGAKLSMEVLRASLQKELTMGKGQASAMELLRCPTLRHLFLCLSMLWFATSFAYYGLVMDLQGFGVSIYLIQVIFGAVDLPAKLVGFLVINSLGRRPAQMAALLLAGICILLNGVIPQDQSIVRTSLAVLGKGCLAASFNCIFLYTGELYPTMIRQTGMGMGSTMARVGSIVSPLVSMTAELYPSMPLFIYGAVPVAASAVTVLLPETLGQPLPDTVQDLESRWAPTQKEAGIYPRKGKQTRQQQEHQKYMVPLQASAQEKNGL

OAT3 [3] = target: T3, OAT3 (Homo sapiens, UniProt Q8TCC7); settings: cited from earlier work
T3 construct: expressed in transfected cells; host or cells: MDCK II cells
T3 sequence (Q8TCC7 1-542): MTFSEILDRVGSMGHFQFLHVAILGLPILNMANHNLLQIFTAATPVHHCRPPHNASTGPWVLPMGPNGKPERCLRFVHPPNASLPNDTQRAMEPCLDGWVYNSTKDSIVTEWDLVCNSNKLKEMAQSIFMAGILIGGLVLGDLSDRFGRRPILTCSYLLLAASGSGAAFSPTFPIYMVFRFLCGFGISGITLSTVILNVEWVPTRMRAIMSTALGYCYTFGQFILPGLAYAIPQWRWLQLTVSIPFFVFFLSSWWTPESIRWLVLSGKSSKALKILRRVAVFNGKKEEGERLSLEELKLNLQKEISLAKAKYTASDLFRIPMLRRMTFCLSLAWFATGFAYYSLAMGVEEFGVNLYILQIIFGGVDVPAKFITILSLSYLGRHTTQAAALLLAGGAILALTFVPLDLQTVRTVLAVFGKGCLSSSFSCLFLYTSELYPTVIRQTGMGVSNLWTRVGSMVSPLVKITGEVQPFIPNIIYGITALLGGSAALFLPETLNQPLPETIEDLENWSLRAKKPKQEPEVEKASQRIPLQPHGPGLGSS

[4] = design: method as in PMID 17331546; settings: guinea pigs; cited from earlier work
[5] = target: T1, rat type 2 11β-hydroxysteroid dehydrogenase (11β-HSD2); experiment: Inhibition of 11β-HSD2 in rat kidney microsome fraction; type: biochemical; settings: for pIC50: 37 °C, 30 min
Experimental: Compounds 2 and 3 inhibited 11β-HSD2 in a rat kidney microsome fraction in a concentrations-dependent manner (Fig. 2).
Figure 2 Inhibitory effects of 2 and 3 on 11β-HSD2 using rat kidney microsome. [^3H] cortisone and each compound were mixed with the rat kidney microsome fraction, and incubated at 37 °C for 30 min. Then, the amount of [^3H] cortisol was measured. Data are expressed as mean ± S.E. (n = 4) of the percentage relative to the amount of [^3H] cortisol in the mixture without samples. **P < 0.01 and ***P < 0.001 compared with the groups without the samples by Dunnett’s multiple t-test for compounds 2 and 3, and by Student’s t-test for GA.
Assays were conducted as described by Diederich et al.[20] with slight modifications as described in our previous report.

OAT1 [6] = target: T2, OAT1; experiment: Uptake into MDCK II cells stably expressing OAT1; type: cell-based; settings: pooled EHBR plasma, pH 5.5, 37 °C, 15 min
Experimental: (§1) Kidneys were collected from normal SD rats, and the kidney slices were incubated with the plasma samples of EHBRs at 37 °C or 4 °C for 2 h (A–C). MDCK II cells stably expressing OAT1 or OAT3 were incubated with the plasma samples of EHBRs at 37 °C for 15 min (D–F). […] Data are expressed as mean ± S.E. (n = 3 for (C, D), and (E); n = 6 for (A, B), and F). *P < 0.05 and **P < 0.01 vs 4 °C group by Student’s t-test for (A–C), and vs mock cells by Dunnett’s multiple t-test for (D–F).
(§2) Uptake studies using rat kidney slices and cells stably expressing OAT1 and OAT3 were conducted with the same protocol as in our previous study.

OAT3 [7] = target: T3, OAT3; experiment: Uptake into MDCK II cells stably expressing OAT3; type: cell-based; settings: pooled EHBR plasma, pH 5.5, 37 °C, 15 min
Experimental: as §1, §2

inhibitory titer on 11β-HSD2 compared with GA [5]	pIC50 [5]	uptake into cells expressing OAT1 compared with mock cells (OAT1 [6])	uptake into cells expressing OAT3 compared with mock cells (OAT3 [7])	SMILES	pIC50 [1]	substrate of OAT1 (OAT1 [2])	substrate of OAT3 (OAT3 [3])	hypokalemia after i.v. injection [4]
–	–	–	–	CC1(C)[C@@H](O[C@@H]2O[C@H](C(=O)O)[C@@H](O)[C@H](O)[C@H]2O)CC[C@]2(C)[C@H]3C(=O)C=C4[C@@H]5C[C@@](C)(C(=O)O)CC[C@]5(C)CC[C@@]4(C)[C@]3(C)CC[C@@H]12 [3MGA, 3-monoglucuronyl glycyrrhetinic acid, reference compound]	6.60	substrate	substrate	caused hypokalemia
–	–	–	–	CC1(C)[C@@H](OS(=O)(=O)O)CC[C@]2(C)[C@H]3C(=O)C=C4[C@@H]5C[C@@](C)(C(=O)O[C@@H]6O[C@H](C(=O)O)[C@@H](O)[C@H](O)[C@H]6O)C[C@H](O)[C@]5(C)CC[C@@]4(C)[C@]3(C)CC[C@@H]12 [compound 1, 22α-hydroxy-18β-glycyrrhetyl-3-O-sulfate-30-glucuronide]	5.70	substrate	substrate	–
slightly higher than that of GA	6.96	significantly higher	significantly higher	CC1(C)[C@@H](OS(=O)(=O)O)CC[C@]2(C)[C@H]3C(=O)C=C4[C@@H]5C[C@@](C)(C(=O)O)C[C@H](O)[C@]5(C)CC[C@@]4(C)[C@]3(C)CC[C@@H]12 [compound 2, 22α-hydroxy-18β-glycyrrhetyl-3-O-sulfate]	–	–	–	–
slightly higher than that of GA	7.00	significantly higher	significantly higher	CC1(C)[C@@H](OS(=O)(=O)O)CC[C@]2(C)[C@H]3C(=O)C=C4[C@@H]5C[C@@](C)(C(=O)O)CC[C@]5(C)CC[C@@]4(C)[C@]3(C)CC[C@@H]12 [compound 3, 18β-glycyrrhetyl-3-O-sulfate]	–	–	–	–
